In ChEMBL document CHEMBL3638998, “17Beta-hydroxysteroid dehydrogenase type 1 inhibitors for the treatment of hormone-related diseases” (2013):

Biological target: CYP2C9 (Homo sapiens, UniProt P11712)
Assay: Inhibition Assay: Inhibition assay using P450 CYP enzymes.

Chain of CYP2C9 (P11712 whole entry): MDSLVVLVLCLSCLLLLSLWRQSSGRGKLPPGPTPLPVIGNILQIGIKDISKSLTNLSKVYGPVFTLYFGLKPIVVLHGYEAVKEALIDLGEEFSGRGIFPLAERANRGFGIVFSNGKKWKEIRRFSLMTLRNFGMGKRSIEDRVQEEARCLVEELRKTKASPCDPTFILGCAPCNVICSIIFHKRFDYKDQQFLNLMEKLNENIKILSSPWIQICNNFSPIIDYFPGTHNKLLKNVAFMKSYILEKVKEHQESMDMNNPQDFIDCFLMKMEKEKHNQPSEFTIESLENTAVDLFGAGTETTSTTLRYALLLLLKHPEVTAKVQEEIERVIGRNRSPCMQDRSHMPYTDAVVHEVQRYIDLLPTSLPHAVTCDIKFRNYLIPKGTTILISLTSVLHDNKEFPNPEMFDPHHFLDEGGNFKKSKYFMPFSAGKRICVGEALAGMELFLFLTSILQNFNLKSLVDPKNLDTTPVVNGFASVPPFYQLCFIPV

- IC50: 30 nM
Compound: CNC(=O)/C=C/c1cc(OC)cc(-c2ccc3cc(OC)ccc3c2)c1
